Experimental data from publication PMC6891286, “Towards the Development of an In vivo Chemical Probe for Cyclin G Associated Kinase (GAK)” (Molecules, 2019).

Experiments:
Assay in all cases: KINOMEscan
Format in all cases: binding
[1] = molecular target: T1, MST1 (Homo sapiens, UniProt Q13043); settings: 35 at 1 µM; read-out: % inhibition
T1 construct: purchased Eurofins DiscoverX (KINOMEscan)
Description: (§1) KinomeScan Assay on 35 was performed as previously described at EuroFins DiscoverX (Fremont, CA, USA).

[2] = molecular target: T2, FES (Homo sapiens, UniProt P07332); settings: 35 at 1 µM; read-out: % inhibition
T2 construct: purchased Eurofins DiscoverX (KINOMEscan)
Description: as §1

[3] = molecular target: T3, KIT-autoinhibited (Homo sapiens, UniProt P10721); settings: 35 at 1 µM; read-out: % inhibition
T3 construct: purchased Eurofins DiscoverX (KINOMEscan)
Description: as §1

[4] = molecular target: T4, PRKCE (Homo sapiens, UniProt Q02156); settings: 35 at 1 µM; read-out: % inhibition
T4 construct: purchased Eurofins DiscoverX (KINOMEscan)
Description: as §1

[5] = molecular target: T5, PAK1 (Homo sapiens, UniProt Q13153); settings: 35 at 1 µM; read-out: % inhibition
T5 construct: purchased Eurofins DiscoverX (KINOMEscan)
Description: as §1

[6] = molecular target: T6, MAPKAPK2 (Homo sapiens, UniProt P49137); settings: 35 at 1 µM; read-out: % inhibition
T6 construct: purchased Eurofins DiscoverX (KINOMEscan)
Description: as §1

[7] = molecular target: T7, ADCK3 (Homo sapiens, UniProt Q8NI60); settings: 35 at 1 µM; read-out: % inhibition
T7 construct: purchased Eurofins DiscoverX (KINOMEscan)
Description: as §1

[8] = molecular target: T8, MAP4K2 (Homo sapiens, UniProt Q12851); settings: 35 at 1 µM; read-out: % inhibition
T8 construct: purchased Eurofins DiscoverX (KINOMEscan)
Description: as §1

[9] = molecular target: T9, EGFR(L861Q) (Homo sapiens, UniProt P00533, L861Q); settings: 35 at 1 µM; read-out: % inhibition
T9 construct: purchased Eurofins DiscoverX (KINOMEscan)
Description: as §1

[10] = molecular target: T10, MST1R (Homo sapiens, UniProt Q04912); settings: 35 at 1 µM; read-out: % inhibition
T10 construct: purchased Eurofins DiscoverX (KINOMEscan)
Description: as §1

[11] = molecular target: T11, PIK3C2B (Homo sapiens, UniProt O00750); settings: 35 at 1 µM; read-out: % inhibition
T11 construct: purchased Eurofins DiscoverX (KINOMEscan)
Description: as §1

[12] = molecular target: T12, LZK (Homo sapiens, UniProt O43283); settings: 35 at 1 µM; read-out: % inhibition
T12 construct: purchased Eurofins DiscoverX (KINOMEscan)
Description: as §1

[13] = molecular target: T13, p38-beta (Homo sapiens, UniProt Q15759); settings: 35 at 1 µM; read-out: % inhibition
T13 construct: purchased Eurofins DiscoverX (KINOMEscan)
Description: as §1

[14] = molecular target: T14, SGK3 (Homo sapiens, UniProt Q96BR1); settings: 35 at 1 µM; read-out: % inhibition
T14 construct: purchased Eurofins DiscoverX (KINOMEscan)
Description: as §1

[15] = molecular target: T15, MAPKAPK5 (Homo sapiens, UniProt Q8IW41); settings: 35 at 1 µM; read-out: % inhibition
T15 construct: purchased Eurofins DiscoverX (KINOMEscan)
T15 sequence (Q8IW41 whole entry): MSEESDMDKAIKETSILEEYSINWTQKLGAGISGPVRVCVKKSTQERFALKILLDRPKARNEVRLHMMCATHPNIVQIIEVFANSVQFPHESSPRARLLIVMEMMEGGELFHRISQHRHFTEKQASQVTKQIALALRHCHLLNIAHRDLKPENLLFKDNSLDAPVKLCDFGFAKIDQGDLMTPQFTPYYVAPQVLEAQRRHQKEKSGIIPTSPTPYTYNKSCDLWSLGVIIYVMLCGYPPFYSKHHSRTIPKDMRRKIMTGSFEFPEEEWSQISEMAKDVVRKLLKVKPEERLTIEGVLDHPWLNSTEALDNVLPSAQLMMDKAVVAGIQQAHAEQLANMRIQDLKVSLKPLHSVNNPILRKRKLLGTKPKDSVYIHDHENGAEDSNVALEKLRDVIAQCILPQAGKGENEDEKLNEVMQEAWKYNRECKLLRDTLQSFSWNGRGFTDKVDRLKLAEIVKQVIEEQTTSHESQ
Description: as §1

[16] = molecular target: T16, RSK1(Kin.Dom.1-N-terminal) (Homo sapiens, UniProt Q15418); settings: 35 at 1 µM; read-out: % inhibition
T16 construct: RSK1(Kin.Dom.1-N-terminal); purchased Eurofins DiscoverX (KINOMEscan)
Description: as §1

[17] = molecular target: T17, EPHA2 (Homo sapiens, UniProt P29317); settings: 35 at 1 µM; read-out: % inhibition
T17 construct: purchased Eurofins DiscoverX (KINOMEscan)
Description: as §1

[18] = molecular target: T18, ABL1(F317I)-phosphorylated (Homo sapiens, UniProt P00519, F317I); settings: 35 at 1 µM; read-out: % inhibition
T18 construct: purchased Eurofins DiscoverX (KINOMEscan)
Description: as §1

[19] = molecular target: T19, CIT (Homo sapiens, UniProt O14578); settings: 35 at 1 µM; read-out: % inhibition
T19 construct: purchased Eurofins DiscoverX (KINOMEscan)
Description: as §1

[20] = molecular target: T20, MAP4K4 (Homo sapiens, UniProt O95819); settings: 35 at 1 µM; read-out: % inhibition
T20 construct: purchased Eurofins DiscoverX (KINOMEscan)
Description: as §1

[21] = molecular target: T21, MAST1 (Homo sapiens, UniProt Q9Y2H9); settings: 35 at 1 µM; read-out: % inhibition
T21 construct: purchased Eurofins DiscoverX (KINOMEscan)
Description: as §1

[22] = molecular target: T22, CSF1R-autoinhibited (Homo sapiens, UniProt P07333); settings: 35 at 1 µM; read-out: % inhibition
T22 construct: purchased Eurofins DiscoverX (KINOMEscan)
Description: as §1

[23] = molecular target: T23, CDK4-cyclinD1 (Homo sapiens, UniProt P11802); settings: 35 at 1 µM; read-out: % inhibition
T23 construct: purchased Eurofins DiscoverX (KINOMEscan)
Description: as §1

[24] = molecular target: T24, NIM1 (Homo sapiens, UniProt Q8IY84); settings: 35 at 1 µM; read-out: % inhibition
T24 construct: purchased Eurofins DiscoverX (KINOMEscan)
T24 sequence (Q8IY84 whole entry): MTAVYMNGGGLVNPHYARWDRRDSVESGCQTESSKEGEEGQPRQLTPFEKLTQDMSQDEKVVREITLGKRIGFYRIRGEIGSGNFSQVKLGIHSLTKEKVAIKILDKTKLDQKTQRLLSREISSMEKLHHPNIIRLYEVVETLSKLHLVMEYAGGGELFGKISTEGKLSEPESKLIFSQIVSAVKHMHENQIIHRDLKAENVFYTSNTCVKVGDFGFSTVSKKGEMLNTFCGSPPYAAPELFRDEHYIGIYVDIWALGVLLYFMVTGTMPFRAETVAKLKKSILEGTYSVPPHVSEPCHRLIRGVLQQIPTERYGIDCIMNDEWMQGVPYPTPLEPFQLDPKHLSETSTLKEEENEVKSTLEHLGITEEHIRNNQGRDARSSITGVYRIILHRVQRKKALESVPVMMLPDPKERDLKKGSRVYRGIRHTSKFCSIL
Description: as §1

[25] = molecular target: T25, ABL1(M351T)-phosphorylated (Homo sapiens, UniProt P00519, M351T); settings: 35 at 1 µM; read-out: % inhibition
T25 construct: purchased Eurofins DiscoverX (KINOMEscan)
Description: as §1

[26] = molecular target: T26, MEK5 (Homo sapiens, UniProt Q13163)
T26 construct: purchased Eurofins DiscoverX (KINOMEscan)
T26 sequence (Q13163 whole entry): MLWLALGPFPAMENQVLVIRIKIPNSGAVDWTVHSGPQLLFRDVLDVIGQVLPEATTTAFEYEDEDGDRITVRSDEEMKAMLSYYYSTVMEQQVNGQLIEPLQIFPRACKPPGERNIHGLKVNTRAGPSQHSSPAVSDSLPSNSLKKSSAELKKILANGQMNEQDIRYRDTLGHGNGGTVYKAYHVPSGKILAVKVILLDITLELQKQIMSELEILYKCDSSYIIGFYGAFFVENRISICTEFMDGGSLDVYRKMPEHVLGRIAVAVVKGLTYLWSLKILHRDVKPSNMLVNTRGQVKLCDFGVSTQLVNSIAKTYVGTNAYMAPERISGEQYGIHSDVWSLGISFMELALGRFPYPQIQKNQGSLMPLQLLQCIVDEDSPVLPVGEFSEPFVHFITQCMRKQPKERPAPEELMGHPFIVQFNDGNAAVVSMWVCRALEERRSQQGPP
Description: as §1

[27] = molecular target: T27, FLT3(N841I) (Homo sapiens, UniProt P36888, N841I); settings: 35 at 1 µM; read-out: % inhibition
T27 construct: purchased Eurofins DiscoverX (KINOMEscan)
Description: as §1

[28] = molecular target: T28, ARK5 (Homo sapiens, UniProt O60285); settings: 35 at 1 µM; read-out: % inhibition
T28 construct: purchased Eurofins DiscoverX (KINOMEscan)
Description: as §1

[29] = molecular target: T29, PKN2 (Homo sapiens, UniProt Q16513); settings: 35 at 1 µM; read-out: % inhibition
T29 construct: purchased Eurofins DiscoverX (KINOMEscan)
T29 sequence (Q16513 whole entry): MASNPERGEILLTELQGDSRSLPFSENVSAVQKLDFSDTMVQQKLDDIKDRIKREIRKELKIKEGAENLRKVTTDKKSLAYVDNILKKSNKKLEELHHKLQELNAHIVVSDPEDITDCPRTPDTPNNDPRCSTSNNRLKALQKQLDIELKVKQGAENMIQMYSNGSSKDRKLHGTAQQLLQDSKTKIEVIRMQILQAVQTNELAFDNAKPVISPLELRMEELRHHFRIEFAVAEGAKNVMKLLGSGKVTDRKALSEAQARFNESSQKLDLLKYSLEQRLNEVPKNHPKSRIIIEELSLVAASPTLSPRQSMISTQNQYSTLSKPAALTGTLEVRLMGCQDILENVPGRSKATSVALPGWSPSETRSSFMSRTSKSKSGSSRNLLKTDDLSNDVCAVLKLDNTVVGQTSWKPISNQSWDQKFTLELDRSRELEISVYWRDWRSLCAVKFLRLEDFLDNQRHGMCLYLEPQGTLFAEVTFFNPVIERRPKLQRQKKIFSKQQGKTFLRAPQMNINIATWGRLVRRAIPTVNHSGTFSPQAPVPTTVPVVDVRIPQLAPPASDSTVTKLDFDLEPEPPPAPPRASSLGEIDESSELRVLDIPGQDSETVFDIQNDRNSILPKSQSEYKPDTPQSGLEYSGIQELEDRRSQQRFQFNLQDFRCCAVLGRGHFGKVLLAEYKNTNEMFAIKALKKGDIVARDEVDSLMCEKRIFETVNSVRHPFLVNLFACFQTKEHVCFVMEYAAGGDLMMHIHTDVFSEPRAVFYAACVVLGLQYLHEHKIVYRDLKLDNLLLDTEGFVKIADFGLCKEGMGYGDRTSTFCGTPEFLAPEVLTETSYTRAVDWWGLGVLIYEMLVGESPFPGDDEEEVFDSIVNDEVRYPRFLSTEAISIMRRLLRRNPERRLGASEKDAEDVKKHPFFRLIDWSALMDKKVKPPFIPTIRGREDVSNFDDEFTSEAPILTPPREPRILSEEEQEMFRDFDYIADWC
Description: as §1

[30] = molecular target: T30, ABL1-nonphosphorylated (Homo sapiens, UniProt P00519); settings: 35 at 1 µM; read-out: % inhibition
T30 construct: purchased Eurofins DiscoverX (KINOMEscan)
Description: as §1

[31] = molecular target: T31, FER (Homo sapiens, UniProt P16591); settings: 35 at 1 µM; read-out: % inhibition
T31 construct: purchased Eurofins DiscoverX (KINOMEscan)
Description: as §1

[32] = molecular target: T32, AMPK-alpha2 (Homo sapiens, UniProt P54646); settings: 35 at 1 µM; read-out: % inhibition
T32 construct: purchased Eurofins DiscoverX (KINOMEscan)
Description: as §1

[33] = molecular target: T33, RPS6KA5(Kin.Dom.2-C-terminal) (Homo sapiens, UniProt O75582); settings: 35 at 1 µM; read-out: % inhibition
T33 construct: RPS6KA5(Kin.Dom.2-C-terminal); purchased Eurofins DiscoverX (KINOMEscan)
Description: as §1

[34] = molecular target: T34, TNIK (Homo sapiens, UniProt Q9UKE5); settings: 35 at 1 µM; read-out: % inhibition
T34 construct: purchased Eurofins DiscoverX (KINOMEscan)
T34 sequence (Q9UKE5 whole entry): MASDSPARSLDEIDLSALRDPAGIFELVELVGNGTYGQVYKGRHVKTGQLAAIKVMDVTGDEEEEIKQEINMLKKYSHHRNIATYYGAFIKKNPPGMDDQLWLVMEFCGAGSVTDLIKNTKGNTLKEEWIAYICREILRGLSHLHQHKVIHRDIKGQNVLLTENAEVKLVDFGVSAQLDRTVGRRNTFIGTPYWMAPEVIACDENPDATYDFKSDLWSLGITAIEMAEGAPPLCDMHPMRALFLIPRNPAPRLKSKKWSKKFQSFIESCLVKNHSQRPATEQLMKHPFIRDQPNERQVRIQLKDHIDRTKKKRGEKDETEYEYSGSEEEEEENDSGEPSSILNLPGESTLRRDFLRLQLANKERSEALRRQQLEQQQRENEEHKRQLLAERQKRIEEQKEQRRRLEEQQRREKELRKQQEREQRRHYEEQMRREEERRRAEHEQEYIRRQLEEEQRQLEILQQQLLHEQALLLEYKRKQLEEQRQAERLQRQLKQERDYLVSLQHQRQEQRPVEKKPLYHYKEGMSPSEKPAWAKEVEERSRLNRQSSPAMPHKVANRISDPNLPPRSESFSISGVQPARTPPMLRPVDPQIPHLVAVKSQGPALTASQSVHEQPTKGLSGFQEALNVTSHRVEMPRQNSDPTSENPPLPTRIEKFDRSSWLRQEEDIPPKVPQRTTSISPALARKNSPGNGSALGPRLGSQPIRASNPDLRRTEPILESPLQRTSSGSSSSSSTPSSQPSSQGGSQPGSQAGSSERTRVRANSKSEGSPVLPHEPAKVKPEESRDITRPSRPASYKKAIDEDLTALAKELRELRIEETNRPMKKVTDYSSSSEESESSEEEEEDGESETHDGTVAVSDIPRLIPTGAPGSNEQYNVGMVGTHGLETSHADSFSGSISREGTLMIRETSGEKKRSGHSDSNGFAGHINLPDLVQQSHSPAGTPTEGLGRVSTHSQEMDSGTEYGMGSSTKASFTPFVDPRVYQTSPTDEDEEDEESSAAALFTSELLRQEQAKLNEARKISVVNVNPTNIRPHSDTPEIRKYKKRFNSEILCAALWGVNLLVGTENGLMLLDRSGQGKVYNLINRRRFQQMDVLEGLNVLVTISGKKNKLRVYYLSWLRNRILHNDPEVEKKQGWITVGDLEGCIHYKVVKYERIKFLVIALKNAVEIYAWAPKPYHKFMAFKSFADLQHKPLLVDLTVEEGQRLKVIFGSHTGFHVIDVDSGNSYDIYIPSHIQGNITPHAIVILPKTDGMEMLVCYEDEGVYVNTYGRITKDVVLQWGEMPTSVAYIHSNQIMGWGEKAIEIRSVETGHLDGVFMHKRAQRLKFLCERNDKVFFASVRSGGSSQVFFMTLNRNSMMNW
Description: as §1

[35] = molecular target: T35, SGK (Homo sapiens, UniProt O00141); settings: 35 at 1 µM; read-out: % inhibition
T35 construct: purchased Eurofins DiscoverX (KINOMEscan)
T35 sequence (O00141 whole entry): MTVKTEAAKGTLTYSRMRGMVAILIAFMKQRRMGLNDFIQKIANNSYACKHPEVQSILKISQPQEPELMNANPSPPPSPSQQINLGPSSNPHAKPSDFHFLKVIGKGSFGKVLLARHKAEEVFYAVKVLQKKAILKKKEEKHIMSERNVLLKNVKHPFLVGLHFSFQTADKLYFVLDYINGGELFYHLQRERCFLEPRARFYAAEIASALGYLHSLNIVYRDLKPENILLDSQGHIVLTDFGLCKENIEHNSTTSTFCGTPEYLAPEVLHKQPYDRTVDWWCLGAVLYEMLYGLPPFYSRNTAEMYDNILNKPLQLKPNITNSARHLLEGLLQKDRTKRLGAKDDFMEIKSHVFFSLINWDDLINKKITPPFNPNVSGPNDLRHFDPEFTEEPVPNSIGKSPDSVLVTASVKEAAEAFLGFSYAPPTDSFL
Description: as §1

[36] = molecular target: T36, DRAK2 (Homo sapiens, UniProt O94768); settings: 35 at 1 µM; read-out: % inhibition
T36 construct: purchased Eurofins DiscoverX (KINOMEscan)
Description: as §1

[37] = molecular target: T37, MAP4K3 (Homo sapiens, UniProt Q8IVH8); settings: 35 at 1 µM; read-out: % inhibition
T37 construct: purchased Eurofins DiscoverX (KINOMEscan)
Description: as §1

[38] = molecular target: T38, CSNK1G3 (Homo sapiens, UniProt Q9Y6M4); settings: 35 at 1 µM; read-out: % inhibition
T38 construct: purchased Eurofins DiscoverX (KINOMEscan)
Description: as §1

[39] = molecular target: T39, TYK2(JH1domain-catalytic) (Homo sapiens, UniProt P29597); settings: 35 at 1 µM; read-out: % inhibition
T39 construct: TYK2(JH1domain-catalytic); purchased Eurofins DiscoverX (KINOMEscan)
Description: as §1

[40] = molecular target: T40, VPS34 (Homo sapiens, UniProt Q8NEB9); settings: 35 at 1 µM; read-out: % inhibition
T40 construct: purchased Eurofins DiscoverX (KINOMEscan)
Description: as §1

[41] = molecular target: T41, MYLK4 (Homo sapiens, UniProt Q86YV6); settings: 35 at 1 µM; read-out: % inhibition
T41 construct: purchased Eurofins DiscoverX (KINOMEscan)
T41 sequence (Q86YV6 whole entry): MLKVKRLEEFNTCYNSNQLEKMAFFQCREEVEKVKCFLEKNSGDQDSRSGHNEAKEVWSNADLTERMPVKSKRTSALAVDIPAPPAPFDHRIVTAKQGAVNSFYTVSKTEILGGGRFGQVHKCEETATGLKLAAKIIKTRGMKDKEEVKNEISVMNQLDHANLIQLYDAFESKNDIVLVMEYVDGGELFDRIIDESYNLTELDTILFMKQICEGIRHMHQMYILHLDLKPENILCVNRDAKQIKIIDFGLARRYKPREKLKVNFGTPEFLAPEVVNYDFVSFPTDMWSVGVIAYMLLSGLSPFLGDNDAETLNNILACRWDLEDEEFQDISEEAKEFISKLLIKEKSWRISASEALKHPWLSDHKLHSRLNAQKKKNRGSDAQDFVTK
Description: as §1

T1 sequence (Q13043 whole entry): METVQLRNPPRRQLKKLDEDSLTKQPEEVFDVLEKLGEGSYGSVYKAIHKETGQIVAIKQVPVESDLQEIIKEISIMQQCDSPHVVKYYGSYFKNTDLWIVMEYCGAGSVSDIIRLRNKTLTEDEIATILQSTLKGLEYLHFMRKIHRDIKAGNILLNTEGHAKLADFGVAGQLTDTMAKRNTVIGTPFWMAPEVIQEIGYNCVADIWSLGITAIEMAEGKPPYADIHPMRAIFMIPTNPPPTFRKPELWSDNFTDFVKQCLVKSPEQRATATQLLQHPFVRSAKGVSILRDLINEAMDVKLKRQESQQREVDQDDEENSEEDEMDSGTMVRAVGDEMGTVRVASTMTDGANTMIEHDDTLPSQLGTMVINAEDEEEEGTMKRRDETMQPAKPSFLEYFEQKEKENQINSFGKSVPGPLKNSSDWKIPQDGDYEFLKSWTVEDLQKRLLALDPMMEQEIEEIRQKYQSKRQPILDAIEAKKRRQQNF

SMILES: Brc1ccc2nccc(Nc3ccc4cn[nH]c4c3)c2c1 [Compound 35, 6-Bromo-N-(1H-indazol-6-yl)quinolin-4-amine]
- activity at 1 µM [1]: 100%
- activity at 1 µM [2]: 100%
- activity at 1 µM [3]: 100%
- activity at 1 µM [4]: 95%
- activity at 1 µM [5]: 85%
- activity at 1 µM [6]: 100%
- activity at 1 µM [7]: 100%
- activity at 1 µM [8]: 100%
- activity at 1 µM [9]: 100%
- activity at 1 µM [10]: 100%
- activity at 1 µM [11]: 100%
- activity at 1 µM [12]: 100%
- activity at 1 µM [13]: 100%
- activity at 1 µM [14]: 100%
- activity at 1 µM [15]: 100%
- activity at 1 µM [16]: 100%
- activity at 1 µM [17]: 100%
- activity at 1 µM [18]: 100%
- activity at 1 µM [19]: 86%
- activity at 1 µM [20]: 100%
- activity at 1 µM [21]: 100%
- activity at 1 µM [22]: 100%
- activity at 1 µM [23]: 100%
- activity at 1 µM [24]: 88%
- activity at 1 µM [25]: 100%
- activity at 1 µM ([26]; 35 at 1 µM, read-out: % inhibition): 11%
- inhibition at 1 µM ([26]; KinomeScan, screened at 1 μM, read-out: kinases inhibited at 1 μM: MEK5): 89%
- activity at 1 µM [27]: 90%
- activity at 1 µM [28]: 100%
- activity at 1 µM [29]: 99%
- activity at 1 µM [30]: 88%
- activity at 1 µM [31]: 96%
- activity at 1 µM [32]: 100%
- activity at 1 µM [33]: 70%
- activity at 1 µM [34]: 97%
- activity at 1 µM [35]: 100%
- activity at 1 µM [36]: 100%
- activity at 1 µM [37]: 100%
- activity at 1 µM [38]: 100%
- activity at 1 µM [39]: 100%
- activity at 1 µM [40]: 100%
- activity at 1 µM [41]: 100%
